Type in all cases: in vivo
In assay [1] the test system is Cabbage Looper (Trichoplusia ni, TRIPNI). Briefly: Bioassay on Cabbage Looper (CL), 128-well diet tray assay. The following applies: 168 h, 50 μg/cm^2 on artificial diet, second instar CL larvae, 25° C., five to seven days, average of eight wells, read-out: CL % Control (or Mortality) rating. As for the experimental part: (§1) Certain molecules disclosed in this document were tested against BAW and CEW using procedures described in the following examples. In the reporting of the results, the “BAW & CL Rating Table” was used (See Table Section).
Bioassays on CL were conducted using a 128-well diet tray assay, one to five second instar CL larvae were placed in each well (3 mL) of the diet tray that had been previously filled with 1 mL of artificial diet to which 50 μg/cm^2 of the test compound (dissolved in 50 μL of 90:10 acetone-water mixture) had been applied (to each of eight wells) and then allowed to dry. Trays were covered with a clear self-adhesive cover and held at 25° C., 14:10 light-dark for five to seven days. Percent mortality was recorded for the larvae in each well; activity in the eight wells was then averaged. The results are indicated in the table entitled “Table ABC: Biological Results” (See Table Section).

Assay [2] relates to Green Peach Aphid (Myzus persicae, MYZUPE). In words: Bioassay on Green Peach Aphid (GPA), foliar spray on cabbage seedlings. The following applies: 72 h, 200 ppm spray on infested cabbage seedlings, graded after three days, Abbott corrected % control, read-out: GPA % Control (or Mortality) rating. As for the experimental part:
Certain molecules disclosed in this document were tested against GPA using procedures described in the following example. In the reporting of the results, the “GPA Rating Table” was used (See Table Section).
Cabbage seedlings grown in 3-inch pots, with 2-3 small (3-5 cm) true leaves, were used as test substrate. The seedlings were infested with 20-50 GPA (wingless adult and nymph stages) one day prior to chemical application. Four pots with individual seedlings were used for each treatment. Test compounds (2 mg) were dissolved in 2 mL of acetone/methanol (1:1) solvent, forming stock solutions of 1000 ppm test compound. The stock solutions were diluted 5× with 0.025% Tween 20 in water to obtain the solution at 200 ppm test compound. A hand-held aspirator-type sprayer was used for spraying a solution to both sides of […] leaves until runoff. Reference plants (solvent check) were sprayed with the diluent only containing 20% by volume of acetone/methanol (1:1) solvent. Treated plants were held in a holding room for three days at approximately 25° C. and ambient relative humidity (RH) prior to grading. Evaluation was conducted by counting the number of live aphids per plant under a microscope. Percent Control was measured by using Abbott's correction formula (W. S. Abbott, “A Method of Computing the Effectiveness of an Insecticide” J. Econ. Entomol. 18 (1925), pp. 265-267) as follows. Corrected % Control=100*(X−Y)/X where X=No. of live aphids on solvent check plants and Y=No. of live aphids on treated plants

In assay [3] the test system is Beet Armyworm (Spodoptera exigua, LAPHEG). Briefly: Bioassay on Beet Armyworm (BAW), 128-well diet tray assay. The following applies: 168 h, 50 μg/cm^2 on artificial diet, second instar BAW larvae, 25° C., five to seven days, average of eight wells, read-out: BAW % Control (or Mortality) rating. The method, then:
as §1
Bioassays on BAW were conducted using a 128-well diet tray assay. one to five second instar BAW larvae were placed in each well (3 mL) of the diet tray that had been previously filled with 1 mL of artificial diet to which 50 μg/cm^2 of the test compound (dissolved in 50 μL of 90:10 acetone-water mixture) had been applied (to each of eight wells) and then allowed to dry. Trays were covered with a clear self-adhesive cover and held at 25° C., 14:10 light-dark for five to seven days. Percent mortality was recorded for the larvae in each well; activity in the eight wells was then averaged. The results are indicated in the table entitled “Table ABC: Biological Results” (See Table Section).

Each structure is given as a SMILES string.

As to `FC(F)(F)Oc1ccc(-n2cnc(-c3ccc(NC4=NC(c5ccccc5)CS4)cc3)n2)cc1` (stereo not drawn) [Compound F23, 4-Phenyl-N-(4-(1-(4-(trifluoromethoxy)phenyl)-1H-1,2,4-triazol-3-yl)phenyl)-4,5-dihydrothiazol-2-amine], the mortality at 50 µg/cm2 in assay [1] and in assay [3] was 0% each time. The mortality at 200 ppm in assay [2] came out at 0%.
With `Fc1ccc(C2CSC(Nc3ccc(-c4ncn(-c5ccc(OC(F)(F)F)cc5)n4)cc3)=N2)cc1` (stereo not drawn) [Compound F24, 4-(4-Fluorophenyl)-N-(4-(1-(4-(trifluoromethoxy)phenyl)-1H-1,2,4-triazol-3-yl)phenyl)-4,5-dihydrothiazol-2-amine], the mortality at 50 µg/cm2 in assay [1] and in assay [3] was 0 to 50% in each case. For the same molecule, the mortality at 200 ppm in assay [2] came out at 0%.
`FC(F)(F)Oc1ccc(-n2cnc(-c3ccc(NC4=NC(c5ccc(Cl)cc5)CS4)cc3)n2)cc1` (stereo not drawn) [Compound F25, 4-(4-Chlorophenyl)-N-(4-(1-(4-(trifluoromethoxy)phenyl)-1H-1,2,4-triazol-3-yl)phenyl)-4,5-dihydrothiazol-2-amine]: the mortality at 50 µg/cm2 in assay [1] and in assay [3] was 0% each time. Further, the mortality at 200 ppm in assay [2] came out at 0%.
For the molecule `FC(F)(F)Oc1ccc(-n2cnc(-c3ccc(NC4=NC(c5ccc(Br)cc5)CS4)cc3)n2)cc1` (stereo not drawn) [Compound F26, 4-(4-Bromophenyl)-N-(4-(1-(4-(trifluoromethoxy)phenyl)-1H-1,2,4-triazol-3-yl)phenyl)-4,5-dihydrothiazol-2-amine], the mortality at 50 µg/cm2 in assay [1] is 0 to 50%; in assay [3], 0%. Besides, in assay [2], the mortality at 200 ppm was 0%.
As to `FC(F)(F)Oc1ccc(-n2cnc(-c3ccc(NC4=NC(c5ccc(C(F)(F)F)cc5)CS4)cc3)n2)cc1` (stereo not drawn) [Compound F27, N-(4-(1-(4-(Trifluoromethoxy)phenyl)-1H-1,2,4-triazol-3-yl)phenyl)-4-(4-(trifluoromethyl)phenyl)-4,5-dihydrothiazol-2-amine], the mortality at 50 µg/cm2 in assay [1] is 50 to 100%; in assay [3], 0%. The mortality at 200 ppm in assay [2] was determined as 0%.
`FC(F)(F)Oc1ccc(C2CSC(Nc3ccc(-c4ncn(-c5ccc(OC(F)(F)F)cc5)n4)cc3)=N2)cc1` (stereo not drawn) [Compound F28, 4-(4-(Trifluoromethoxy)phenyl)-N-(4-(1-(4-(trifluoromethoxy)phenyl)-1H-1,2,4-triazol-3-yl)phenyl)-4,5-dihydrothiazol-2-amine]: the mortality at 50 µg/cm2 in assay [1] was 0%; in assay [3], 0 to 50%. Also, the mortality at 200 ppm in assay [2] was 0%.
As for `FC(F)(F)Oc1ccc(-n2cnc(-c3ccc(NC4=NC(c5cccc(Cl)c5)CS4)cc3)n2)cc1` (stereo not drawn) [Compound F29, 4-(3-Chlorophenyl)-N-(4-(1-(4-(trifluoromethoxy)phenyl)-1H-1,2,4-triazol-3-yl)phenyl)-4,5-dihydrothiazol-2-amine], the mortality at 50 µg/cm2 in assay [1] and in assay [3] was 50 to 100% each time. Also, in assay [2], the mortality at 200 ppm is 0%.
Take `FC(F)(F)Oc1ccc(-n2cnc(-c3ccc(NC4=NC(c5ccccc5Cl)CS4)cc3)n2)cc1` (stereo not drawn) [Compound F30, 4-(2-Chlorophenyl)-N-(4-(1-(4-(trifluoromethoxy)phenyl)-1H-1,2,4-triazol-3-yl)phenyl)-4,5-dihydrothiazol-2-amine]: the mortality at 50 µg/cm2 in assay [1] and in assay [3] was 50 to 100% in each case. The mortality at 200 ppm in assay [2] was found to be 0%.
As to `Cc1cc(C2CSC(Nc3ccc(-c4ncn(-c5ccc(OC(F)(F)F)cc5)n4)cc3)=N2)ccc1Cl` (stereo not drawn) [Compound F31, 4-(4-Chloro-3-methylphenyl)-N-(4-(1-(4-(trifluoromethoxy)phenyl)-1H-1,2,4-triazol-3-yl)phenyl)-4,5-dihydrothiazol-2-amine], the mortality at 50 µg/cm2 in assay [1] and in assay [3] was 50 to 100% each time. Besides, the mortality at 200 ppm in assay [2] worked out at 0%.
`COc1ccc(C2CSC(Nc3ccc(-c4ncn(-c5ccc(C(F)(F)F)cc5)n4)cc3)=N2)cc1` (stereo not drawn) [Compound F32, 4-(4-Methoxyphenyl)-N-(4-(1-(4-(trifluoromethyl)phenyl)-1H-1,2,4-triazol-3-yl)phenyl)-4,5-dihydrothiazol-2-amine]: the mortality at 50 µg/cm2 in assay [1] and in assay [3] was 0% each time. For the same molecule, the mortality at 200 ppm in assay [2] worked out at 0%.
`Cc1ccc(C2CSC(Nc3ccc(-c4ncn(-c5ccc(C(F)(F)F)cc5)n4)cc3)=N2)cc1` (stereo not drawn) [Compound F33, 4-(p-Tolyl)-N-(4-(1-(4-(trifluoromethyl)phenyl)-1H-1,2,4-triazol-3-yl)phenyl)-4,5-dihydrothiazol-2-amine]: the mortality at 50 µg/cm2 in assay [1] and in assay [3] was 0% each time. Also, the mortality at 200 ppm in assay [2] is 0 to 80%.
Consider `FC(F)(F)c1ccc(-n2cnc(-c3ccc(NC4=NC(c5ccccc5)CS4)cc3)n2)cc1` (stereo not drawn) [Compound F34, 4-Phenyl-N-(4-(1-(4-(trifluoromethyl)phenyl)-1H-1,2,4-triazol-3-yl)phenyl)-4,5-dihydrothiazol-2-amine], for which the mortality at 50 µg/cm2 in assay [1] and in assay [3] was 50 to 100% in each case. In assay [2], the mortality at 200 ppm turned out to be 0%.
As for `Fc1ccc(C2CSC(Nc3ccc(-c4ncn(-c5ccc(C(F)(F)F)cc5)n4)cc3)=N2)cc1` (stereo not drawn) [Compound F35, 4-(4-Fluorophenyl)-N-(4-(1-(4-(trifluoromethyl)phenyl)-1H-1,2,4-triazol-3-yl)phenyl)-4,5-dihydrothiazol-2-amine], the mortality at 50 µg/cm2 in assay [1] is 50 to 100%; in assay [3], 0%. Moreover, the mortality at 200 ppm in assay [2] came out at 0%.
Turning to `FC(F)(F)c1ccc(-n2cnc(-c3ccc(NC4=NC(c5ccc(Cl)cc5)CS4)cc3)n2)cc1` (stereo not drawn) [Compound F36, 4-(4-Chlorophenyl)-N-(4-(1-(4-(trifluoromethyl)phenyl)-1H-1,2,4-triazol-3-yl)phenyl)-4,5-dihydrothiazol-2-amine], the mortality at 50 µg/cm2 in assay [1] is 50 to 100%; in assay [3], 0%. Further, the mortality at 200 ppm in assay [2] worked out at 0%.
As for `FC(F)(F)c1ccc(-n2cnc(-c3ccc(NC4=NC(c5ccc(Br)cc5)CS4)cc3)n2)cc1` (stereo not drawn) [Compound F37], the mortality at 50 µg/cm2 in assay [1] and in assay [3] was 0% each time. Further, the mortality at 200 ppm in assay [2] turned out to be 0%.
On to `FC(F)(F)c1ccc(C2CSC(Nc3ccc(-c4ncn(-c5ccc(C(F)(F)F)cc5)n4)cc3)=N2)cc1` (stereo not drawn) [Compound F38, 4-(4-(Trifluoromethyl)phenyl)-N-(4-(1-(4-(trifluoromethyl)phenyl)-1H-1,2,4-triazol-3-yl)phenyl)-4,5-dihydrothiazol-2-amine], for which the mortality at 50 µg/cm2 in assay [1] is 50 to 100%; in assay [3], 0 to 50%. The mortality at 200 ppm in assay [2] is 0%.
In the same order, the values of `FC(F)(F)Oc1ccc(C2CSC(Nc3ccc(-c4ncn(-c5ccc(C(F)(F)F)cc5)n4)cc3)=N2)cc1` (stereo not drawn) [Compound F39, 4-(4-(Trifluoromethoxy)phenyl)-N-(4-(1-(4-(trifluoromethyl)phenyl)-1H-1,2,4-triazol-3-yl)phenyl)-4,5-dihydrothiazol-2-amine] are 0%, 0% and 0%.
For the molecule `FC(F)(F)c1ccc(-n2cnc(-c3ccc(NC4=NC(c5cccc(Cl)c5)CS4)cc3)n2)cc1` (stereo not drawn) [Compound F40, 4-(3-Chlorophenyl)-N-(4-(1-(4-(trifluoromethyl)phenyl)-1H-1,2,4-triazol-3-yl)phenyl)-4,5-dihydrothiazol-2-amine], the mortality at 50 µg/cm2 in assay [1] and in assay [3] was 50 to 100% each time. In assay [2], the mortality at 200 ppm lay within 0 to 80%.

Broadly, the mortality is the share of the test organisms that died.

The values above are taken from patent US9326516B2, “Molecules having certain pesticidal utilities, and intermediates, compositions, and processes related thereto” (Dow AgroSciences LLC, priority 2014, dated 2016).
